Source: patent US6521641B1, “Male anti-fertility agents” (Allergan, Inc., priority 1998, dated 2003)
Like-named read-outs stand apart in the source and are kept apart here.

Legend:
Sprague-Dawley rats [1] = test: Topical treatment of Sprague-Dawley rats with AGN 194310 cream for 28 days (Example 2); assay type: in vivo, rat
Method: Twenty-nine male and twenty-nine female Sprague-Dawley rats, approximately 7 weeks old were used for the study. Five rats/sex/group were designated as Main Study animals: (vehicle control, 0.025 mg/kg/day AGN 194310, and 0.25 mg/kg/day AGN 194310), and 7/sex/group designated as toxicokinetic satellite animals (0.025 mg/kg/day AGN 194310 and 0.25 mg/kglday AGN 194310). No “vehicle alone” control group was made for the toxicokinetic satellite animals. In this study there was no Recovery group.
The animals' backs were maintained shaven during the course of the study for application of the topical cream. The animals were treated daily with a topical formulation containing either AGN 194310 vehicle cream alone, 0.01% (w/w) AGN 194310 in the same vehicle cream, or 0.1% (w/w) AGN 194310 in the same vehicle cream. The vehicle cream consisted of a mixture of the following ingredients:
Daily dosages were calculated using the most recently obtained body weight, as shown below. The test or control creams were applied for 28 consecutive days to the shaved back of each animal in an area approximately equal to 35.5 cm^2. Application was made using a repeat pipettor, and the drug gently massaged into the skin. An Elizabethan collar was affixed around each animal's neck for a period of about 6 hours following treatment to prevent removal or systemic ingestion of the drug.
Blood was drawn at day 29 via cardiac puncture, as described in Example 1. The animals were first permitted to fast for approximately 16 hours prior to blood collection. Satellite animals were sacrificed on day 28.

Stability to light = assay type: physicochemical
[2] = Toxicokinetics of oral AGN 194310 in rats (drug in blood by GC/MS); assay type: in vivo, rat; settings: for Tmax / Cmax / AUC(0-t): both sexes, Sprague-Dawley, rat, whole blood; for Tmax: Day 22; for Cmax / AUC(0-t): po; for Cmax: N = 8; for AUC(0-t): N = 8, read-out: AUC24 hr
Method: The concentration of drug in the blood was determined from blood drawn from the retro-orbital sinus of the right eye on Day 7 of the study as follows: for rats in groups 7 through 9 (4/sex/group/timepoint, with each animal being bled no more than 3 times), blood (approximately 1 ml) was drawn prior to being given the drug, and at approximately 2, 6, 8, 12 and 24 hours post-dosing. The vehicle-treated rats (group 6) were bled at approximately 8 and 24 hours post-dosing. The rats in groups 6 through 9 were similarly bled on Day 22 of the study, then euthanized. All blood was drawn into tubes containing EDTA to prevent coagulation, and placed on ice prior to analysis. The blood was assayed for the presence of AGN 194310 by gas chromatography/mass spectrometry.
AGN 194310 was systemically absorbed following oral administration to rats and approached the peak concentration in plasma (Cmax) at 2 or 6 hours post dosing (Tmax).

male Sprague Dawley rats = test: Reversibility of spermatogenic arrest, oral AGN 194310 for 4 weeks and recovery (Example 3); assay type: in vivo, rat
Method: Groups of male Sprague Dawley rats were treated orally for 4 weeks with either 0, 0.075, or 0.150 mg/kg/day of AGN 194310. Three to six animals from each group were sacrificed after 2 weeks of treatment, 6 animals from each group were sacrificed following 4 weeks of treatment and 6 animals from each group were sacrificed after 18-23 weeks of subsequent recovery after cessation of treatment. Histological and pathological examinations were done of the sacrificed animals, as in Example 1. Additionally, the animals in the 23 week recovery group were mated to normal, untreated female Sprague Dawley rats before being sacrificed to assess the reproductive function.

[3] = Excretion of the drug (separate experiment); assay type: in vivo; settings: within 2 weeks following treatment
Sprague-Dawley rats [4] = tested on: Sprague-Dawley rats
Method: The drug was administered using a graduated syringe and a 20×3 inch animal feeding needle. Drug was given to each animal in a single dose per day.
Animals were weighed on the first day of the study and once per week thereafter, and the body weights recorded. The body weights were used for the dosage calculations. For all the Main Study and Recovery animals, food (Purina Certified Rodent Chow, meal form) was placed into tared glass jars and left in the animal cages. Jars were removed and weighed once weekly. Food was added to the jars when necessary. Food consumption was not recorded for the animals used in the toxicokinetic satellite studies.
Urine was collected from animals in the Main Study and Recovery groups during week 4 of the treatment period, and from Recovery group animals during week 4 of the recovery period. Urine was analyzed for: blood (hemoglobin and erythrocytes), bilirubin, color, glucose, ketones, leukocytes, microscopic evaluations of any urine sediment, […], pH, protein, specific gravity, transparency, and urobilinogen.
Animals were euthanized by inhalation of carbon dioxide. A complete necropsy was performed on all Main Study and Recovery group animals that died, or were euthanized due to moribund conditions, or were euthanized on scheduled sacrifice.

male cynomologus monkeys = test: Preliminary test of AGN 194310 in male cynomologus monkeys; assay type: in vivo, cynomologus monkey; settings: 5 male cynomologus monkeys, daily dosage of 1.25 mg/kg
Description: Those of skill in the art will also recognize that both rats and monkeys are commonly used and accepted animal models for drug efficacy in humans.

[5] = oral 0.075 mg/kg, after 18 weeks of recovery
[6] = oral 0.075 mg/kg, after 23 weeks of recovery

## CCc1ccc(C2=CC(C)(C)Sc3ccc(C#Cc4ccc(C(=O)O)cc4)cc32)cc1 [AGN 194310, 4-[[4-(4-ethylphenyl)-2,2-dimethyl-(2H)-thiochromen-6-yl]-ethynyl]-benzoic acid]
Sprague-Dawley rats [1]; majority of males displaying spermatogenic arrest, topical
  germ cells in the head of the epididymis: notable reduction of germ cells
Sprague-Dawley rats [1]; male rats in all groups, topical
  hematological differences versus control rats: no statistically significant hematological differences
Sprague-Dawley rats [1]; rats, topical skin application, 0.025 and 0.25 mg/kg/day, 28 days
  treatment-related skin irritation: did not result in any evidence of treatment-related skin irritation
Sprague-Dawley rats [1]; rats, topical, 0.025 and 0.25 mg/kg/day, 28 days
  clinical observations, body weight, food consumption, gross pathology: No treatment-related clinical observations, differences in body weight, differences in food consumption, or in gross pathology were observed
Sprague-Dawley rats [1]; topical 0.025 mg/kg/day, 28 days
  male rats with atrophy of the seminiferous tubules with concomitant spermatogenic arrest: 0 out of 5
Sprague-Dawley rats [1]; topical 0.25 mg/kg/day, 28 days
  male rats with atrophy of the seminiferous tubules with concomitant spermatogenic arrest: 5 out of 5
Stability to light
  stability to normal light: relatively stable to normal light
[2]; across the concentrations of AGN 194310
  systemic exposure to AGN 194310: dose dependent increase
[2]; 0.005 mg/kg/day
  Tmax: 2 h
[2]; 0.015 mg/kg/day
  Tmax: 2 h
[2]; 0.15 mg/kg/day
  Tmax: 6 h
[2]; 0.005 mg/kg/day, 0.001% AGN 194310 (0.005 mg/kg/day), Day 7, mean ± SD
  Cmax: 1.83 ± 0.55 ng/mL
[2]; 0.005 mg/kg/day, 0.001% AGN 194310 (0.005 mg/kg/day), Day 22, mean ± SD
  Cmax: 1.97 ± 0.75 ng/mL
[2]; 0.005 mg/kg/day, Day 7, mean ± SEM
  AUC(0-t): 19.6 ± 1.1 ng·h/mL
[2]; 0.005 mg/kg/day, Day 22, mean ± SEM
  AUC(0-t): 20.8 ± 1.1 ng·h/mL
[2]; 0.015 mg/kg/day, 0.003% AGN 194310 (0.015 mg/kg/day), Day 7, mean ± SD
  Cmax: 4.73 ± 1.2 ng/mL
[2]; 0.015 mg/kg/day, 0.003% AGN 194310 (0.015 mg/kg/day), Day 22, mean ± SD
  Cmax: 5.32 ± 1.56 ng/mL
[2]; 0.015 mg/kg/day, Day 7, mean ± SEM
  AUC(0-t): 57.6 ± 2.6 ng·h/mL
[2]; 0.015 mg/kg/day, Day 22, mean ± SEM
  AUC(0-t): 63.6 ± 2.7 ng·h/mL
[2]; 0.15 mg/kg/day, 0.01% AGN 194310 (0.15 mg/kg/day), Day 7, mean ± SD
  Cmax: 43.1 ± 7.2 ng/mL
[2]; 0.15 mg/kg/day, 0.01% AGN 194310 (0.15 mg/kg/day), Day 22, mean ± SD
  Cmax: 42.4 ± 9.3 ng/mL
[2]; 0.15 mg/kg/day, Day 7, mean ± SEM
  AUC(0-t): 668 ± 24 ng·h/mL
[2]; 0.15 mg/kg/day, Day 22, mean ± SEM
  AUC(0-t): 675 ± 25 ng·h/mL
Male Sprague Dawley rats; all the treated animals, oral 0.075 mg/kg
  seminal vesicles: normal
Male Sprague Dawley rats; oral 0.075 mg/kg
  round spermatids in the epididymal caput and cauda: No increase
Male Sprague Dawley rats; oral 0.075 mg/kg, after 2 and 4 weeks of treatment
  rats with evidence of spermatogenic arrest: All rats
Male Sprague Dawley rats; oral 0.075 mg/kg, after 4 weeks of treatment
  weight of the testes and epididymides: significantly reduced
Male Sprague Dawley rats; [5]
  mature sperm in the epididymides: no mature sperm were seen
  spermatogenesis (histological analysis): active spermatogenesis had resumed
  weight of the testes and epididymides: this weight decrease persisted to some degree
Male Sprague Dawley rats; [6]
  fertility (mating to untreated females): All tested animals were fertile
  rats completely recovered (normal testes weights, complete spermatogenesis cycle, mature sperm in epididymides): 2 of the 3
Male Sprague Dawley rats; oral 0.150 mg/kg, after 2 and 4 weeks of treatment
  rats with spermatogenic arrest: all rats
Male Sprague Dawley rats; oral 0.150 mg/kg, after 23 weeks of recovery
  rats completely recovered (active and complete spermatogenesis, normal testes weight): 4 out of 6
Male Sprague Dawley rats; oral 0.150 mg/kg, after 23 weeks of recovery, remaining two animals
  spermatogenesis in the remaining animals: incomplete spermatogenesis no mature sperm seen in the epididymides histologically
Male Sprague Dawley rats; oral 0.150 mg/kg, after 23 weeks of recovery, the 4 recovered rats
  reproduction of the recovered rats: able to reproduce normally
Male Sprague Dawley rats; when administration is halted
  reversibility of the effects of the drug: fully reversible
[3]
  drug excreted: 88%
Sprague-Dawley rats [4]; rat, in vivo, po
  urinalysis parameters: no apparent treatment-related effects
Sprague-Dawley rats [4]; rats, oral, 0.005-0.15 mg/kg/day, course of the study
  treatment-related deaths: No treatment-related deaths
Sprague-Dawley rats [4]; rats, oral, end of the treatment period
  postmortem pathological examination: no noticeable differences
Male cynomologus monkeys
  inhibition or arrest of spermatogenesis: did not result in inhibition or arrest of spermatogenesis
